Test results: US20070032461A1, “1,3 Aclyated 24-keto-vitamin d3 compounds and methods of use thereof” (BioXell S.p.A., priority 2003, published 2007)
pIC50: −log10 of the molar value.

Assays:
[1] = Maximum tolerated dose (MTD) without inducing hypercalcemia, oral daily dosing for four days, serum calcium assay; assay type: in vivo, C57BL/6 mice
Method: The maximum tolerated dose of the vitamin D3 compounds of the invention were determined in eight week-old female C57BL/6 mice (3 mice/group) dosed orally (0.1 ml/mouse) with various concentrations of Vitamin D3 analogs daily for four days. Analogs were formulated in miglyol for a final concentration of 0.01, 0.03, 0.1 0.3, 1, 3, 10, 30, 100 and 300 μg/kg when given at 0.1 ml/mouse p.o. daily. Blood for serum calcium assay was drawn by tail bleed on day five, the final day of the study. Serum calcium levels were determined using a colorimetric assay (Sigma Diagnostics, procedure no. 597). The highest dose of analog tolerated without inducing hypercalcemia (serum calcium >10.7 mg /dl) was taken as the maximum tolerated dose (MTD).

[2] = test system: ILT3 surface molecule expression on immature dendritic cells; assay: ILT3 upregulation on monocyte-derived immature dendritic cells, flow cytometric analysis; assay type: cell-based, human; conditions: immature dendritic cells cultured 24 hours with graded doses, up to 1000 nM
Method: Immature dendritic cells (DC) were prepared as described in Romani, N. et al. (Romani, N. et al. (1996) J. Immunol. Meth. 196:137). Briefly, peripheral blood mononuclear cells (PBMCs) were obtained from a buffy coat by ficoll-hypaque gradient (Pharmacia Biotec AB, Upsala, Sweden) and monocytes isolated from PBMCs by negative selected with a monocyte isolation kit (Milteny, Biotech, Bergish Gladblach, Germany). After isolation, monocytes were cultured for 6 to 7 days at a cell density of 1-2×10^6 in RPMI medium supplemented with 5% FetalClone I (Hyclone Laboratories, Logan, Utah) 2 mM L-glutamine, […], 1 mM sodium pyruvate and 1% nonessential amino acids, containing 800 U/ml GM-CSF (Mielogen 300, Schering-Plough) and 10 ng/ml interleukin (IL)-4 (PharMingen, San Diego, Calif.). Every other day, approximately 20% of the medium was removed and replaced by the same volume of fresh medium containing GM-CSF and IL-4.
After 6 to 7 days of culture, non-adherent cells (representing immature Dendritic Cells) were harvested and cultured for 24 hours in the presence of graded doses of the following vitamin D compounds: 1,25(OH)2D3; 1,3-O-Diacetyl-1,25 Dihydroxy-16-ene-24-Keto-19-nor Cholecalciferol (compound (2)); and the compounds Mycophenolate Mofetil (MMF) and Dexamethasone (DEX).
Immunoglobulin-Hike transcript-3 upregulation was evaluated by flow cytometric analysis. Briefly, cells were preincubated with […] human IgG (Sigma Chemical, St. Louis, Mo.) and subsequently stained with anti-human ILT3 antibody (see, e.g., Cella, M. et al. (1997) J. Exp. Med. 185:1743) followed by anti-mouse IgG-phycoerithryn (Jackson). Cells were then analyzed with a FACScan® flow cytometer using a Cell Quests software program (both from Beckton Dickinson, Mountain View, Calif.).

[3] = test system: IFN-γ production in MLR (allogeneic PBMC); assay: IFN-γ production by allogeneic T cell activation in the mixed leukocyte response (MLR), ELISA; assay type: cell-based; conditions: 120 h, MLR of allogeneic PBMC from 2 donors, 5 days, read-out: INF-γ IC50
Method: Immature dendritic cells (DC) were prepared as described in Romani, N. et al. (Romani, N. et al. (1996) J. Immunol. Meth. 196:137). IFN-γ production by allogeneic T cell activation in the mixed leukocyte response (MLR) was determined as described in Penna, G., et al., J. Immunol., 164: 2405-2411 (2000).
Briefly, peripheral blood mononuclear cells (PBMC) were separated from buffy coats by Ficoll gradient and the same number (3×10^5) of allogeneic PBMC from 2 different donors were co-cultured in 96-well flat-bottom plates. After 5 days, IFN-γ production in the MLR assay was measured by ELISA and the results expressed as amount (nM) of test compound required to induce 50% inhibition of IFN-γ production (IC50).

[4] = female C57BL/6 mice, p.o. daily for four days, highest dose without hypercalcemia (serum calcium >10.7 mg/dl)

Row | Compound | MTD (mice) [1, 4] [µg/kg] | ILT3 expression on cell surface [2] | MTD relative to compound (1) ([1]; mice, oral, ratio of the MTD of compound (2) to that of the corresponding dihydroxy compound (1)) | MTD at 4 days ([1]; mouse, po, female C57BL/6 mice, p.o. daily for four days, highest dose without hypercalcemia (serum calcium >10.7 mg/dl)) [µg/kg] | pIC50 [3]
1 | 1,25(OH)2D3 | 1 | upregulated |  |  | 
2 | CC(CCC(=O)C(C)(C)O)C1=CCC2C(=CC=C3CC(O)CC(O)C3)CCCC12C (centres unmarked) [(1), 1,25-dihydroxy-16-ene-24-keto-19-nor-cholecalciferol] | 1 |  |  |  | 
3 | CC(=O)O[C@@H]1CC(=C/C=C2\CCC[C@]3(C)C([C@H](C)CCC(=O)C(C)(C)O)=CCC23)C[C@@H](OC(C)=O)C1 (some centres unmarked) [Compound (2), 1,3-O-Diacetyl-1,25-Dihydroxy-16-ene-24-Keto-19-nor-Cholecalciferol] |  | upregulated | more than 300 times | > 300 | 11.10
4 | COc1c(C)c2c(c(O)c1C/C=C(\C)CCC(=O)OCCN1CCOCC1)C(=O)OC2 [MMF, Mycophenolate Mofetil] |  | fail to upregulate |  |  | 
